These results are taken from patent EP2599767A1, “Phenylbutyl-derivatives” (Lunamed AG, priority 2011, dated 2013).

Where two headings read alike, the source gives them in different places.

For orientation: IC50 means the midpoint of a concentration-inhibition curve. A word on the EC50: it is the concentration giving half of the maximal effect.

The test system of data set [1] is Jurkat cells. The data set is described as follows: Cell proliferation assay (dilution of fluorescent membrane marker, flow cytometry). The settings on record: for IC50: Homo sapiens, Jurkat, 48 h; for anti-proliferative effect (in words): Jurkat cell line, 48 hours of treatment, without zVAD, Example 3: 30mM and 10mM. The format is cell-based. How it is done: This study was performed using the following cell line on the two types of experiments performed: • Experiment 1: Study of the effects of compounds of Examples 3 and 4 according to the invention on apoptosis and cell proliferation: • o Jurkat: acute T cell leukemia • Experiment 2: Study of the caspase dependency of cell death induced by the compounds of Example 3 and 4 according to the invention. • o Jurkat: acute T cell leukemia This assay is based on the dilution rate of a fluorescent membrane marker which is a direct function of cell division. This probe is non toxic and allows the multiplexed detection of other parameters on the same cell population. The assay is performed by loading the cells with a fluorescent phospholipid analogue before plating. […] Subsequently, Flow cytometry analyzes the dilution rate of the fluorescent probe at the single cell level which is a direct readout of the number of cell divisions. All the conditions were performed in triplicate. Detection of cellular events was performed in triplicate in 96 well-plates after 48 hours of treatment by automated flow cytometry. Non-linear regressions and IC50 calculation were performed with GraphPad Prism 4.01 software. Briefly the time course of the experiments was the following: • o day 1 : seeding of cells in 96 well-plates. • o day 2 : treatment with compounds. • o day 4 : analysis at 48h-treatment. […] Effects of the two compounds of Examples 3 and 4 on apoptosis and cell proliferation in the Jurkat cell line: • The cells were labeled for subsequent cell proliferation measurements and plated in 96 well culture plates in standard culture conditions. • 24 hours after plating, the cells were treated with the two compounds of Examples 3 and 4. Experiment 2: […]
On the technique in general: In flow cytometry, cells or beads pass a laser one at a time.

Data set [2] relates to Jurkat cells. The data set is described as follows: Apoptosis assay (active Caspase 3/7 by FAM-DEVD-FMK probe, flow cytometry). The format is cell-based. As to conditions: Jurkat cell line; for EC50: Homo sapiens, pro-apoptotic effects; for EC50 / pro-apoptotic effect (in words): 48 hours of treatment; for caspase dependence: effects in presence of zVAD-FMK (in words): 100µM zVAD-FMK, Example 4 at 5mM; for pro-apoptotic effect (in words): Example 3: 30mM and 10mM. The protocol:
This study was performed using the following cell line on the two types of experiments performed: • Experiment 1: Study of the effects of compounds of Examples 3 and 4 according to the invention on apoptosis and cell proliferation: • o Jurkat: acute T cell leukemia • Experiment 2: Study of the caspase dependency of cell death induced by the compounds of Example 3 and 4 according to the invention. • o Jurkat: acute T cell leukemia Apoptosis was quantified at the single cell level by titrating active Caspase 3/7. This assay is based on the strong affinity of the FAM-DEVD-FMK peptide (carboxyfluorescein-labeled fluoromethyl ketone) for the catalytic site of the protease. When added to a cell culture, the FAM-DEVD-FMK probe enters cells and covalently binds to the large subunit of the active caspase 3/7. The bound labelled peptide remains within the cytosolic compartment, while the unbound peptides are drained off from the cell. The probe emits a green fluorescent signal which allows a direct measure of the amount of active caspase 3/7 present in the cell. All the conditions were performed in triplicate. Detection of cellular events was performed in triplicate in 96 well-plates after 48 hours of treatment by automated flow cytometry. Non-linear regressions and IC50 calculation were performed with GraphPad Prism 4.01 software. Briefly the time course of the experiments was the following: • o day 1 : seeding of cells in 96 well-plates. • o day 2 : treatment with compounds. • o day 4 : analysis at 48h-treatment. […] Effects of the two compounds of Examples 3 and 4 on apoptosis and cell proliferation in the Jurkat cell line: • The cells were labeled for subsequent cell proliferation measurements and plated in 96 well culture plates in standard culture conditions. • 24 hours after plating, the cells were treated with the two compounds of Examples 3 and 4. Experiment 2: […] zVad-FMK is a cell-permeant pan caspase inhibitor that irreversibly binds to the catalytic site of caspase proteases and can inhibit induction of apoptosis.

Data set [3] can be described thus: Solubility in solvents (qualitative). The settings on record: solvents as named in the value. Format: physicochemical.
Where [4] appears, read: +100µM zVAD, read-out: EC50 (+100µM zVAD).
[5] abbreviates: without zVAD, read-out: EC50 (without zVAD).

For `CC(NC(=O)CCCc1ccccc1)C(=O)O` (centres unmarked) [Example 3, 2-(4-Phenyl-butyrylamino)-propionic acid], the results for the IC50 with Jurkat cells [1] (read-out: IC50 (+100µM zVAD)) and in the data set with Jurkat cells [1] (read-out: IC50 (without zVAD)) were 4300 µM and 3200 µM, respectively. In the data set with Jurkat cells [1], the “anti-proliferative effect (in words)” value is reported as “anti-proliferative effects”. Further, the half-maximal effective concentration (EC50) amounted to 13 mM with Jurkat cells [2] (setting [4]) and 6.4 mM in the data set with Jurkat cells [2] (setting [5]). Besides, the “caspase dependence: effects in presence of zVAD-FMK (in words)” value (“caspase dependence: effects in presence” for short) in the data set on Jurkat cells [2] is listed as “sensitive to 100µM zVAD-fmk”. Besides, the “pro-apoptotic effect (in words)” value with Jurkat cells [2] (without zVAD) is “pro-apoptotic”. Also, the “solubility (in words)” value in data set [3] was “soluble in alcohols (ethanol and methanol) as well as in acetic acid”.
Turning to `O=C(O)CCCc1ccccc1` [Example 4-PB, 4-Phenylbutyric acid, reference compound], the 50% inhibitory concentration (IC50) turned out to be 2200 µM in the data set with Jurkat cells [1] (read-out: IC50 (+100µM zVAD)) and 2600 µM in the data set on Jurkat cells [1] (read-out: IC50 (without zVAD)). Moreover, the “anti-proliferative effect (in words)” value in the data set on Jurkat cells [1] is recorded as “inhibit proliferation”. Also, the EC50 with Jurkat cells [2] (setting [4]) worked out at 10 mM; in the data set with Jurkat cells [2] (setting [5]) it was 3.2 mM. For the same molecule, in the data set on Jurkat cells [2], the “caspase dependence: effects in presence” value is “well inhibited by zVAD-FMK”. In addition, in the data set on Jurkat cells [2] (without zVAD), the “pro-apoptotic effect (in words)” value is given as “able to elicit apoptosis”.
Regarding `C[C@H](NC(=O)CCCc1ccccc1)C(=O)OCCOC(=O)[C@@H](C)NC(=O)CCCc1ccccc1` [Example 4], the IC50 in the data set on Jurkat cells [1] (read-out: IC50 (without zVAD)) was 9000 µM. Moreover, the “anti-proliferative effect (in words)” value in the data set with Jurkat cells [1] is “concentration dependent anti-proliferative effect”. Also, the “caspase dependence: effects in presence” value with Jurkat cells [2] is “no apoptosis was observed”. Moreover, the “pro-apoptotic effect (in words)” value in the data set with Jurkat cells [2] (without zVAD) is “able to induce apoptosis only at the highest concentration tested (5mM)”. The “solubility (in words)” value in data set [3] was “soluble in dichloromethane, ethyl acetate and acetonitrile”.
For `CN[C@@H]1C[C@H]2O[C@@](C)([C@@H]1OC)n1c3ccccc3c3c4c(c5c6ccccc6n2c5c31)C(=O)NC4` [STS, Staurosporine, reference compound], the values for the half-maximal inhibitory concentration (IC50) with Jurkat cells [1] (read-out: IC50 (+100µM zVAD)) and with Jurkat cells [1] (read-out: IC50 (without zVAD)) were 0.011 µM and 0.012 µM, respectively. Besides, in the data set on Jurkat cells [2] (setting [5]), the EC50 is 2.3e-05 mM.
